The source of these data is patent US20100203114A1, “MICELLE ENCAPSULATION OF THERAPEUTIC AGENTS” (WARF - Wisconsin Alumni Research Foundation, priority 2007, published 2010).

Like-named read-outs stand apart in the source and are kept apart here. Where only a bound is given, the exact number is not on record here.

The conditions of series [1]: cited from earlier work.
For series [2] the following is noted: dogs; cited from earlier work.
The subject of series [3] is PC-3 human prostate cells. In words: In vitro cytotoxicity, resazurin dye. The series is classed as cell-based. The following applies: Prostate cell, 72 hours. Here is the method: (§1) In vitro cytotoxicity studies. […] Cell lines were plated in 96-well plates at an initial density of 3000 cells per well in 90 μL of appropriate media, and maintained at 37° C. under a 5% CO2 atmosphere. […] Drug-loaded micelles or micelles alone were formulated in MilliQ water (following dialysis of DMSO to form the micelles). It was not necessary to dilute the samples further before addition to wells. […] Following, the metabolic rate of cells was determined by using resazurin dye (Sigma-Aldrich).

In series [4] the test system is MCF-7 human breast cancer cells. In words: In vitro cytotoxicity, resazurin dye. It is filed as cell-based. The following applies: MCF7, 72 hours. Here is the method:
as §1
On the technique in general: Resazurin is reduced to fluorescent resorufin, in cell work by metabolically active cells.

Another series has as its system MCF-7. The following applies: reported by the National Cancer Institute; cited from earlier work.
Series [5] in a line: 17-AAG loading in PEG-PLA micelles prepared by dialysis (HPLC). The series is classed as physicochemical. Here is the method: Preparation and characterization of drug loaded PEG-PLA micelles. […] For example, 5 mg of 17-AAG and 45 mg of PEG-PLA (10:90 w/w) were dissolved in 10 mL DMAc. The resulting solution was dialyzed against H2O in 3500 MWCO tubing (SpectraPor). Resulting micelles were centrifuged at 5000 g's for 10 min to precipitate unincorporated drug. […] Micelle solutions were concentrated by rotary evaporation at reduced pressure at room temperature, followed by centrification (5000 g's for 10 minutes).
The loading experiments were investigated at 10% w/w to evaluate the suitability of PEG-PLA micelles for solubilizing 17-AAG.

For the molecule `C=CCNC1=C2C[C@@H](C)C[C@H](OC)[C@H](O)[C@@H](C)/C=C(\C)[C@H](OC(N)=O)[C@@H](OC)/C=C\C=C(/C)C(=O)NC(=CC1=O)C2=O` [17-AAG, 17-allylamino-17-demethoxygeldanamycin], the “solubility of 17-AAG” value in series [1] (according to the National Cancer Institute) is approximately 10 µg/mL. In addition, the aqueous solubility result in series [1] is on record as “about 0.1 mg/mL”. Further, the water solubility entry in series [1] (neutral pH) is given as “about 0.1 mg/mL”. For the same molecule, in series [2], the maximum tolerated dose is listed as 100-200 mg/m^2/day. Moreover, the IC50 (as a rule, the point on the concentration scale where inhibition reaches its midpoint) in series [3] (n = 6, read-out: PC-3 IC50) is 74 ± 14 nM; in series [3] (read-out: IC50 in PC-3), 74 ± 14 nM; in series [4] (n = 6, read-out: MCF-7 IC50), 22 ± 14 nM; in series [4] (read-out: IC50 in MCF-7), 22 ± 14 nM; with MCF-7, 12.6 nM. The “mol 17-AAG:mol PEG-PLA” value in series [5] (0.3 mM PEG-PLA solution) was 0.73±0.09. For the same molecule, the 17-AAG solubilized in series [5] (0.3 mM PEG-PLA solution, initial 17-AAG 0.45 mg/mL (11.4% w/w)) is reported as 0.083 ± 0.012 mg/mL. The 17-AAG loaded in series [5] (0.3 mM PEG-PLA, weight 17-AAG versus total weight of carrier) amounted to 0.024 ± 0.003 mg/mg. In series [5] (PEG-PLA (12:6 kDa) micelles), this molecule returned a 17-AAG loading efficiency of 19±3 % w/w. For the same molecule, the drug loading in series [5] (PEG-PLA (12:12 kDa) micelles, with and without alpha-tocopherol) is listed as less than 0.5 mg/mL. The “time after which drug precipitated out of solution” value in series [5] (micelles incorporating 1:1 alpha-tocopherol to drug, even at 4° C.) was in the range of 4 to 5 h. The Efficiency in series [5] (total drug solubilized versus initial drug concentration) is listed as 19 ± 3% loaded.
Regarding `CO[C@H]1/C=C\C=C(/C)C(=O)NC2=CC(=O)C(NCCN(C)C)=C(C[C@@H](C)C[C@H](OC)[C@H](O)[C@@H](C)/C=C(\C)[C@@H]1OC(N)=O)C2=O` [17-DMAG, 17-dimethylamino-ethylamino-17-demethoxygeldanamycin], the maximum tolerated dose in series [2] is listed as 8 mg/m^2/day.
